Results published in the supplement of paper PMC10307832.

Tests used:
Experiment in all cases: relative viability (nuclei count vs DMSO), 5 days (fraction); higher = more cells survive
[1] = compound: COC1=CC=C(C=C1)CN2C=CC3=C2C=C(C=C3)C(=O)NO + CCNC(=O)c1noc(-c2cc(C(C)C)c(O)cc2O)c1-c1ccc(CN2CCOCC2)cc1 [Luminespib] (partner 0.01 µM)
In short: (§1)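 Nuclei were stained with Hoechst during a one-step fixation (final 0.05% Triton X-100, 1% formaldehyde, 1 ug/ml Hoechst) carried out 5 days after dosing, then counted on 4× images. The cells, lung cancer lines in 1536-well plates, had been dosed by pin tool the day after seeding with one drug alone or a fixed anchor-drug dose plus five library-drug doses (not always all listed) in √10 steps. Relative viability is the nuclei count in treated wells divided by that in vehicle wells, and each value is the median of duplicate plates.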

[2] = compound: COC1=CC=C(C=C1)CN2C=CC3=C2C=C(C=C3)C(=O)NO + CS(=O)(=O)N1CCN(Cc2cc3nc(-c4cccc5[nH]ncc45)nc(N4CCOCC4)c3s2)CC1 [Pictilisib] (partner 1 µM)
In short: as §1

Veliparib + OSI-027 = compound: C[C@]1(c2nc3c(C(N)=O)cccc3[nH]2)CCCN1 [Veliparib] + COc1cccc2cc(-c3nc([C@H]4CC[C@H](C(=O)O)CC4)n4ncnc(N)c34)[nH]c12 [OSI-027] (partner 0.5 µM)
In short: as §1

Veliparib + AZD7762 = compound: C[C@]1(c2nc3c(C(N)=O)cccc3[nH]2)CCCN1 [Veliparib] + NC(=O)Nc1cc(-c2cccc(F)c2)sc1C(=O)N[C@H]1CCCNC1 [AZD7762] (partner 0.2 µM)
In short: as §1

Row | Cell Line | relative viability ([1]; first compound 0.08 µM) | relative viability ([1]; first compound 0.253 µM) | relative viability ([1]; first compound 0.8 µM) | relative viability ([1]; first compound 2.53 µM) | relative viability ([1]; first compound 8 µM) | relative viability ([2]; first compound 0.08 µM) | relative viability ([2]; first compound 0.253 µM) | relative viability ([2]; first compound 0.8 µM) | relative viability ([2]; first compound 2.53 µM) | relative viability ([2]; first compound 8 µM) | relative viability (Veliparib + OSI-027; first compound 0.02 µM) | relative viability (Veliparib + OSI-027; first compound 0.06325 µM) | relative viability (Veliparib + OSI-027; first compound 0.2 µM) | relative viability (Veliparib + OSI-027; first compound 0.6325 µM) | relative viability (Veliparib + OSI-027; first compound 2 µM) | relative viability (Veliparib + AZD7762; first compound 0.02 µM) | relative viability (Veliparib + AZD7762; first compound 0.06325 µM) | relative viability (Veliparib + AZD7762; first compound 0.2 µM) | relative viability (Veliparib + AZD7762; first compound 0.6325 µM) | relative viability (Veliparib + AZD7762; first compound 2 µM)
1 | 201T | 1.05 | 1.13 | 1.07 | 1.05 | 0.987 | 0.687 | 0.716 | 0.752 | 0.725 | 0.683 | 0.659 | 0.58 | 0.713 | 0.759 | 0.722 | 0.656 | 0.778 | 0.645 | 0.639 | 0.689
2 | A549 | – | – | – | – | – | 0.446 | 0.585 | 0.504 | 0.502 | 0.472 | – | – | – | – | – | – | – | – | – | –
3 | A-427 | – | 1.03 | 0.956 | 0.835 | 0.847 | – | 0.743 | 0.787 | 0.643 | 0.606 | – | 0.414 | 0.485 | 0.456 | 0.463 | 0.768 | 0.719 | 0.755 | 0.724 | 0.782
4 | ABC-1 | – | 0.844 | 0.391 | 0.435 | 0.391 | – | 0.761 | 0.78 | 0.724 | 0.662 | – | 0.429 | 0.618 | 0.493 | 0.312 | – | 0.778 | 0.771 | 0.752 | 0.716
5 | BEN | 0.427 | 0.286 | 0.23 | 0.354 | 0.218 | 0.504 | 0.589 | 0.582 | 0.544 | 0.499 | 0.288 | 0.315 | 0.294 | 0.296 | 0.3 | 0.599 | 0.644 | 0.664 | 0.793 | 0.625
6 | CAL-12T | 0.163 | 0.233 | 0.528 | 0.452 | 0.332 | 0.244 | – | 0.527 | 0.377 | 0.283 | 0.62 | 0.629 | 0.604 | 0.584 | 0.657 | 0.668 | 0.591 | 0.661 | 0.627 | 0.741
7 | COR-L23 | 0.536 | 0.754 | 0.716 | 0.747 | 0.603 | 0.496 | 0.788 | 0.714 | 0.727 | 0.711 | 0.707 | 0.738 | 0.841 | 0.57 | 0.77 | – | – | – | – | –
8 | COR-L 105 | 0.858 | 0.871 | 0.893 | 0.713 | 0.485 | – | 0.348 | 0.462 | 0.363 | 0.306 | 0.462 | 0.715 | 0.651 | 0.626 | 0.654 | – | – | – | – | –
9 | Calu-6 | – | – | – | – | – | 0.426 | 0.946 | 0.981 | 0.969 | 0.826 | – | – | – | – | – | – | – | – | – | –
10 | ChaGo-K-1 | – | 0.69 | 0.494 | 0.601 | 0.409 | – | 0.655 | 0.801 | 0.706 | 0.462 | 0.266 | 0.519 | 0.513 | 0.589 | 0.55 | 0.73 | 0.854 | 0.83 | 0.83 | 0.824
11 | EBC-1 | – | – | – | – | – | 0.351 | 0.514 | 0.401 | 0.424 | 0.338 | – | – | – | – | – | – | – | – | – | –
12 | EKVX | 0.864 | 0.896 | 0.913 | 0.858 | 0.783 | 0.327 | 0.443 | 0.424 | 0.522 | 0.439 | 0.629 | 0.646 | 0.63 | 0.639 | 0.675 | – | 0.731 | 0.833 | 0.728 | 0.806
13 | EMC-BAC-2 | 0.964 | 1.25 | 1.16 | 1.21 | 1.11 | 0.448 | 0.549 | 0.555 | 0.553 | 0.466 | 0.346 | 0.318 | 0.379 | 0.349 | 0.345 | 1.15 | 1.02 | 1.12 | 1.09 | 1.17
14 | EPLC-272H | 0.262 | – | 0.333 | 0.4 | 0.235 | 0.233 | 0.333 | 0.341 | 0.287 | 0.218 | 0.227 | 0.273 | 0.265 | 0.26 | 0.344 | – | 0.122 | 0.21 | 0.174 | 0.166
15 | H3255 | 0.846 | 0.789 | 1.03 | 0.896 | 0.589 | 0.428 | 0.411 | 0.416 | 0.436 | 0.467 | 0.674 | 0.681 | 0.584 | 0.545 | 0.584 | 1 | 0.893 | 0.816 | 0.756 | 0.857
16 | HARA | – | 0.552 | 0.745 | 0.111 | 0.548 | 0.467 | 0.492 | 0.403 | 0.43 | 0.33 | 0.508 | 0.495 | 0.465 | 0.433 | 0.485 | 0.346 | – | 0.302 | 0.308 | 0.573
17 | HCC-15 | 0.319 | 0.277 | 0.304 | 0.45 | 0.34 | 0.522 | 0.743 | 0.866 | 0.833 | 0.741 | – | 0.641 | 0.7 | 0.619 | 0.603 | 1.24 | 1.13 | 1.11 | 1.37 | 1.28
